Results: patent US5516797A, “Immunosuppressive compounds” (Vertex Pharmaceuticals, Incorporated, priority 1994, dated 1996)

Legend:
[1] = biological target: T1, FK-506 binding protein (FKBP) (Homo sapiens, UniProt P62942); experiment: Inhibition of PPIase (rotamase) enzyme activity of FKBP (apparent Ki); type: biochemical; conditions: substrate N-succinylAla-Ala-Pro-Phe-p-nitroanilide, chymotrypsin-coupled
Description: The inhibition of the PPIase (rotamase) enzyme activity of the FKBP (apparent "Ki" values) can also be measured according to the methods described by either Harding, M. W. et al., Nature 341:758-760 (1989) or Siekierka, J. J. et al., Nature 341:755-757 (1989). The cis-trans isomerization of the proline-alanine peptide bond in a model substrate, N-succinylAla-Ala-Pro-Phe-p-nitroanilide, is monitored spectrophotometrically in a coupled assay with chymotrypsin, which releases 4-nitroanilide from the trans form of the substrate. Fischer, G. et al., Nature 337:476-478 (1989). The inhibitory effect of the addition of different concentrations of inhibitor on the extent of the reaction is determined, and analysis of the change in first order rate constant as a function of inhibitor concentration yields an estimate of the apparent Ki value.

[2] = biological target: T1, FK-506 binding protein (FKBP); experiment: Competitive binding to FKBP against [3H]dihydro-FK-506 (apparent Kd); conditions: competition with [3H]dihydro-FK-506

T1 sequence (P62942 whole entry): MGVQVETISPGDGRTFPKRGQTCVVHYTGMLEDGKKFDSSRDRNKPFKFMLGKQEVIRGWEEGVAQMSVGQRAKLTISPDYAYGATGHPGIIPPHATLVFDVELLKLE

Ki [1] [µM] | Kd [2] [µM] | SMILES
> 60 | > 8 | O=C(OCc1ccccc1)[C@@H]1CCCCN1C(=O)/C=C/c1c[nH]c2ccccc12 [Compound 120]
– | > 12 | O=C(C(=O)N1CCCC[C@H]1C(=O)OCc1ccccc1)c1ccco1 [Compound 20, (S)-Benzyl N-(2-furylglyoxyl)pipecolate]
3 | > 15 | O=C(OCc1ccccc1)[C@@H]1CCCN1C(=O)/C=C/c1ccc2c(c1)OCO2 [Compound 109, (S)-3-(3,4-Methylenedioxyphenyl)-prop-2-enoylproline benzyl ester]
9 | 3 | CC(C)(C)/C=C/C(=O)C(=O)N1CCCC[C@H]1C(=O)OCc1ccccc1 [Compound 54]
130 | > 1000 | O=C(C(=O)N1CCCC[C@H]1C(=O)OCc1ccccc1)c1ccccn1 [Compound 17]
70 | > 20 | COC(=O)C(=O)N1CCCC[C@H]1C(=O)OC/C(C)=C/[C@H]1CC[C@@H](O)CC1 [Compound 39]
1.5 | 1 | C[C@@H](OC(=O)[C@@H]1CCCCN1C(=O)C(=O)c1ccccc1)c1ccccc1 [Compound 51]
2 | 0.6 | COc1cc(OC)cc(C(=O)C(=O)N2CCCC[C@H]2C(=O)OCc2ccccc2)c1 [Compound 11]
160 | > 75 | O=C(C(=O)N1CCCC[C@H]1C(=O)OCc1ccccc1)c1cccc([N+](=O)[O-])c1 [Compound 15]
25 | 20 | O=C(C(=O)N1CCCC[C@H]1C(=O)OCc1ccccc1)c1c[nH]c2ccccc12 [Compound 21]
14 | > 5 | O=C(OCc1ccccc1)[C@@H]1CCCCN1C(=O)/C=C/c1ccc([N+](=O)[O-])cc1 [Compound 117]
> 400 | > 500 | CCN(C(=O)C(=O)OC)[C@@H](C)C(=O)OC(C)(C)C [Compound 128]
20 | > 5 | CN(C)c1ccc(/C=C/C(=O)N2CCCC[C@H]2C(=O)OCc2ccccc2)cc1 [Compound 116]
5 | 5 | COc1ccc(C(=O)C(=O)N2CCCC[C@H]2C(=O)OCc2ccccc2)cc1 [Compound 10]
1000 | > 200 | COC(=O)C(=O)N(C)CC(=O)OCc1ccccc1 [Compound 124]
3 | > 4 | O=C(OCc1ccccc1)[C@@H]1CCCCN1C(=O)/C=C/c1ccc2c(c1)OCO2 [Compound 110]
200 | > 500 | CC(C)(C)OC(=O)[C@@H]1CCCN1C(=O)C(=O)c1ccco1 [Compound 19]
600 | > 500 | COC(=O)C(=O)N1CCC[C@H]1C(=O)OC(C)(C)C [Compound 29]
170 | > 200 | COC(=O)C(=O)N(C)[C@H](C(=O)OCc1ccccc1)C(C)C [Compound 126]
4 | 10 | O=C(C(=O)N1CCCC[C@H]1C(=O)OCc1ccccc1)c1ccc(F)cc1 [Compound 14]

Ki [1] [µM] | Kd [2] [µM] | SMILES
5 | 80 | COc1cccc(C(=O)C(=O)N2CCC[C@H]2C(=O)OCc2ccccc2)c1 [Compound 42]
7 | 1 | O=C(C(=O)N1CCCC[C@H]1C(=O)Oc1ccc2ccccc2c1)c1ccccc1 [Compound 6]
50 | 25 | COc1cccc(OC)c1C(=O)C(=O)N1CCCC[C@H]1C(=O)OCc1ccccc1 [Compound 12]
40 | > 30 | COC(=O)C(=O)N1CCCC[C@H]1C(=O)OC/C(C)=C/c1ccc(OC)cc1 [Compound 36]
17 | > 75 | COc1ccccc1C(=O)C(=O)N1CCCC[C@H]1C(=O)OCc1ccccc1 [Compound 8]
6 | > 30 | COc1ccc(/C=C/C(=O)N2CCC[C@H]2C(=O)OCc2ccccc2)cc1 [Compound 111]
> 500 | 10 | O=C(C(=O)N1CCCC[C@H]1C(=O)OCc1ccccc1)c1cccc[n+]1[O-] [Compound 18]
25 | > 5 | O=C(C(=O)N1CCC[C@H]1C(=O)OCc1ccccc1)c1ccccc1 [Compound 2]
450 | > 25 | COc1cc(/C=C/C(=O)N2CCC[C@H]2C(=O)OCc2ccccc2)cc(OC)c1OC [Compound 115]
– | > 50 | COC(=O)C(=O)N1CCCC[C@H]1C(=O)OCc1ccccc1 [Compound 31]
80 | > 150 | COc1ccc(/C=C/C(=O)N(C)[C@@H](C)C(=O)OCc2ccccc2)cc1 [Compound 129, (S)-N-3-(4-methoxyphenyl)-prop-2-enoyl-N-methylalanine benzyl ester]
26 | > 25 | O=C(Cc1ccccc1[N+](=O)[O-])C(=O)N1CCC[C@H]1C(=O)OCc1ccccc1 [Compound 27]
400 | > 300 | CCC(=O)C(=O)N1CCC[C@H]1C(=O)OCc1ccccc1 [Compound 41]
400 | > 200 | COC(=O)C(=O)N(C)[C@@H](C)C(=O)OCc1ccccc1 [Compound 125]
4 | > 8 | COc1ccc(/C=C/C(=O)N2CCCC[C@H]2C(=O)OCc2ccccc2)cc1 [Compound 112, (S)-Benzyl N-(4-Methoxycinnamoyl)pipecolate]
12 | 0.35 | O=C(OCc1ccccc1)[C@@H]1CCCCN1C(=O)C(=O)C1(O)CCCCO1 (some centres unmarked) [Compound 50]
30 | > 20 | COc1ccc(/C=C/C(=O)N(C)[C@H](C(=O)OCc2ccccc2)C(C)C)cc1 [Compound 130]
– | 12 | COC(=O)C(=O)N1CCCC[C@H]1C(=O)OCCCC1CCCCC1 [Compound 33]
190 | > 25 | C=CCOC(=O)[C@@H]1CCCCN1C(=O)C(=O)OC [Compound 30]
45 | > 40 | COC(=O)C(=O)N1CCCC[C@H]1C(=O)OCCC1CCCCC1 [Compound 32]
